From patent US7449595B2, “Nitrosated and nitrosylated prostaglandins, compositions and methods of use” (NitroMed, Inc., priority 1999, dated 2008)

Legend:
[1] = test system: human corpus cavernosum tissue; test: Measurement of cGMP in human corpus cavernosum tissues (ELISA); assay type: cell-based; settings: 5 min incubation after 30 μM Zaprinast and 100 μM IBMX, n=5
Procedure: Human corpus cavernosum specimens were obtained from impotent men at the time of penile prosthesis insertion. Tissues were maintained at 4-6° C. in M-400 solution (composition per 100 ml: mannitol, 4.19 g; KH2PO4, 0.205 g; K2HPO4.3H2O, 0.97 g; KCl, 0.112 g; NaHCO3, 0.084 g) until used. Corpus cavernosum tissues were typically used between 2 and 16 hours from extraction. Measurement of cyclic GMP in corpus cavernosal tissues was carried out as follows. Corpus cavernosal tissue strips (3×3×7 mm) were immersed in a 8 ml organ chamber containing physiological salt solution, maintained at 37° C. and aerated with 5% CO2/95% air, pH 7.4. […] Tissues were incubated for another 5 minutes then immediately frozen in liquid nitrogen and stored at -80° C. until extraction for cyclic nucleotide assay. Tissues were extracted by homogenization in 6% trichloroacetic acid followed by ether (H2O-saturated) extraction and lyophilization. cGMP levels were determined by ELISA using a kit from Cayman Chemical (Ann Arbor, Mich.). Protein concentration in the corpus cavernosum tissue was determined using the Bio-Rad Protein Assay Kit microtiter plate assay procedure (Bio-Rad, Hercules, Calif.) with bovine serum albumin as the standard. The measured concentrations of cGMP in picomoles were normalized based on milligrams of protein to provide a valid comparison between each tissue sample. […]

[2] = test system: human corpus cavernosum tissue; test: Concentration response relaxation studies of human corpus cavernosum tissue strips contracted with phenylephrine; assay type: cell-based; settings: compound alone, strips contracted with 0.5 μM phenylephrine, relaxation as % of 0.1 mM papaverine, n=5, read-out: EC50 (concentration required to obtain the half-maximum response) for relaxation
Procedure: Human corpus cavernosum specimens were obtained from impotent men at the time of penile prosthesis insertion. Tissues were maintained at 4-6° C. in M-400 solution (composition per 100 ml: mannitol, 4.19 g; KH2PO4, 0.205 g; K2HPO4.3H2O, 0.97 g; KCl, 0.112 g; NaHCO3, 0.084 g) until used. Corpus cavernosum tissues were typically used between 2 and 16 hours from extraction.
Concentration response relaxation studies of human corpus cavernosum tissues were conducted as follows. Corpus cavernosal tissue strips (3×3×7 mm), obtained as described in Example 2, were immersed in a 8 ml organ chamber containing physiological salt solution, maintained at 37° C. and aerated with 5% CO2/95% air, pH 7.4. Each strip was incrementally stretched to optimal isometric tension, as determined by maximal contractile responses to 1 μM phenylephrine. Relaxant responses were evaluated by adding increasing cumulative concentrations of compounds to the strips contracted with 0.5 μM phenylephrine. Relaxation responses were expressed as a percentage of total relaxation induced by the addition of 0.1 mM papaverine hydrochloride (total loss of tone) at the end of the experiment. In FIGS. 2 and 3, the data are expressed as mean±standard error. Statistical analysis were conducted using a two-factor ANOVA statistical analysis using StatView software for Apple computers.
The tissues were prepared according to Example 4. […]

| Compound | cGMP production compared to control ([1]; 100 μM GS-NO alone) | EC50 [2] [nM] | cGMP production compared to control ([1]; 1 μM PGE1 alone) |
| --- | --- | --- | --- |
| N[C@@H](CCC(=O)N[C@@H](CSN=O)C(=O)NCC(=O)O)C(=O)O [GS-NO, N-(N-L-γ-glutamyl-S-Nitroso-L-cysteinyl)glycine] | increased amounts of cGMP | 2560 ± 1300 |  |
| CCCCC[C@H](O)/C=C/[C@H]1[C@H](O)CC(=O)[C@@H]1CCCCCCC(=O)O [PGE1, 7-(5-((1E)(3S)-3-hydroxyoct-1-enyl)(1R,4R,5R)-4-(hydroxy-2-oxocyclopentyl)heptanoic acid)] |  | 83 ± 50 | did not produce a significant amount of cGMP |
